From patent US10357035B2, “Microbiocidal anilide derivatives” (SYNGENTA PARTICIPATIONS AG, priority 2015, dated 2019)

| melting point [°C] | Compound |
| --- | --- |
| 114 to 117 | COc1ccnc(C(=O)Nc2ccc(OC3CCCCC3)cc2)c1O [I.b.66, N-[4-(cyclohexoxy)phenyl]-3-hydroxy-4-methoxy-pyridine-2-carboxamide] |
| 130 to 132 | CC1(C)CCC(Oc2ccc(NC(=O)c3cccc4ncoc34)c(F)c2)CC1 [I.r.133, N-[4-(4,4-dimethylcyclohexoxy)-2-fluoro-phenyl]-1,3-benzoxazole-7-carboxamide] |
